In the supplement of paper PMC10307832:

Tests used:
Assay in all cases: relative viability (nuclei count vs DMSO), 5 days (fraction); higher = more cells survive
[1] = compound: C1=CC=C2C(=C1)N=C(S2)C(C#N)C3=NC(=NC=C3)NCCC4=CN=CC=C4 + CCNC(=O)c1noc(-c2cc(C(C)C)c(O)cc2O)c1-c1ccc(CN2CCOCC2)cc1 [Luminespib] (partner 0.01 µM)
Summary of the method: (§1)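 Lung cancer cell lines were pin-tool dosed in 1536-well plates on the day after seeding, with either a lone drug or a fixed anchor-drug dose plus five library-drug doses (not always all listed) in √10 steps. Nuclei were counted on 4× images after 5 days. Relative viability is the ratio of treated-well to vehicle-well nuclei counts, with each value a median of duplicate plates.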

[2] = compound: C1=CC=C2C(=C1)N=C(S2)C(C#N)C3=NC(=NC=C3)NCCC4=CN=CC=C4 + CS(=O)(=O)CCNCc1ccc(-c2ccc3ncnc(Nc4ccc(OCc5cccc(F)c5)c(Cl)c4)c3c2)o1 [Lapatinib] (partner 2 µM)
Summary of the method: as §1

[3] = compound: COc1cc(N2CCC(N3CCN(C)CC3)CC2)ccc1Nc1ncc(Cl)c(Nc2ccccc2S(=O)(=O)C(C)C)n1 [NVP-TAE684] + Nc1ncn([C@H]2C[C@H](O)[C@@H](CO)O2)c(=O)n1 [Decitabine] (partner 2 µM)
Summary of the method: as §1

[4] = compound: COc1cc2/c(=N/c3ccc(Br)cc3F)nc[nH]c2cc1OCC1CCN(C)CC1 [Vandetanib] + CC(=O)Nc1cccc(-n2c(=O)n(C3CC3)c(=O)c3c(Nc4ccc(I)cc4F)n(C)c(=O)c(C)c32)c1 [Trametinib] (partner 0.02 µM)
Summary of the method: as §1

| Cell Line | relative viability ([1]; first compound 0.005 µM) | relative viability ([1]; first compound 0.01581 µM) | relative viability ([1]; first compound 0.05 µM) | relative viability ([1]; first compound 0.1581 µM) | relative viability ([1]; first compound 0.5 µM) | relative viability ([2]; first compound 0.01581 µM) | relative viability ([2]; first compound 0.05 µM) | relative viability ([2]; first compound 0.1581 µM) | relative viability ([2]; first compound 0.5 µM) | relative viability ([3]; first compound 0.2 µM) | relative viability ([3]; first compound 0.6325 µM) | relative viability ([3]; first compound 2 µM) | relative viability ([4]; first compound 0.02 µM) | relative viability ([4]; first compound 0.06325 µM) | relative viability ([4]; first compound 0.2 µM) | relative viability ([4]; first compound 0.6325 µM) | relative viability ([4]; first compound 2 µM) | relative viability ([2]; first compound 0.005 µM) |
| --- | --- | --- | --- | --- | --- | --- | --- | --- | --- | --- | --- | --- | --- | --- | --- | --- | --- | --- |
| NCI-H460 | 0.0281 | 0.0289 | 0.031 | 0.0329 | 0.0322 | 1.12 | 1.06 | 1.85 | 0.273 | 0.535 | 0.51 | 0.294 | 0.141 | 0.147 | 0.157 | 0.148 | 0.123 | – |
| NCI-H520 | 0.237 | 0.201 | 0.214 | 0.224 | 0.198 | 0.818 | 1.01 | 1.15 | 0.819 | 0.508 | 0.45 | 0.267 | 0.627 | 0.642 | 0.577 | 0.687 | 0.68 | 0.672 |
| NCI-H596 | 0.627 | 1.02 | 0.875 | 1.07 | 0.764 | 1.11 | 1.07 | 1.23 | 0.937 | 1 | 1.08 | 0.989 | 0.773 | 0.763 | 0.756 | 0.758 | 0.634 | 0.921 |
| NCI-H647 | 0.208 | 0.262 | 0.169 | 0.235 | 0.286 | 1.34 | 1.11 | 1.3 | 0.546 | 0.388 | 0.386 | 0.261 | 0.458 | 0.474 | 0.469 | 0.451 | 0.436 | – |
| NCI-H650 | 0.784 | – | 0.724 | 0.825 | 0.863 | 0.625 | 0.994 | 1.45 | 0.718 | 0.306 | 0.329 | 0.276 | 0.995 | 0.927 | 0.947 | 0.929 | 0.981 | 0.665 |
| NCI-H661 | 0.902 | 0.917 | 0.918 | 0.926 | 0.933 | 0.533 | 0.451 | 0.519 | 0.476 | 0.584 | 0.495 | 0.508 | 0.55 | 0.543 | 0.63 | 0.601 | 0.532 | 0.512 |
| NCI-H727 | – | 0.241 | 0.294 | 0.105 | 0.329 | 0.821 | 0.813 | 0.83 | 0.795 | 0.836 | 0.771 | 0.552 | 0.417 | 0.379 | 0.366 | 0.364 | 0.329 | 0.857 |
| NCI-H838 | 0.327 | 0.368 | 0.252 | 0.367 | 0.273 | 0.962 | 1.12 | 1.15 | 0.95 | 0.456 | 0.464 | 0.314 | 0.528 | 0.463 | 0.539 | 0.484 | 0.533 | 0.916 |
| NCI-H1355 | 0.618 | 0.832 | 0.765 | 0.763 | 0.568 | 1.03 | 1 | 1.14 | 0.931 | 0.372 | 0.383 | 0.31 | 0.412 | 0.426 | 0.438 | 0.465 | 0.402 | 1.18 |
| NCI-H1395 | 0.878 | 0.641 | 0.822 | 0.679 | 0.819 | – | 1.17 | 1.08 | 1.08 | 0.682 | 0.712 | 0.616 | 1.06 | 1.01 | 0.956 | 1.13 | 1.05 | 0.953 |
| NCI-H1437 | 1.06 | 1.25 | 1.12 | 1.18 | 1.1 | 0.902 | 0.987 | 0.9 | 0.704 | 0.596 | 0.548 | 0.474 | 0.592 | 0.466 | 0.557 | 0.432 | 0.517 | 0.762 |
| NCI-H1650 | 0.171 | 0.191 | 0.176 | 0.204 | 0.2 | 0.658 | 0.758 | 0.829 | 0.863 | 0.399 | 0.411 | 0.343 | 0.618 | 0.409 | 0.461 | 0.483 | 0.364 | 0.894 |
| NCI-H1651 | 0.752 | 0.647 | 1.02 | 1.09 | 0.705 | 0.697 | 1.03 | 1.11 | 0.872 | 0.614 | 0.566 | 0.502 | 0.822 | 0.818 | 0.83 | 0.876 | 0.727 | 0.76 |
| NCI-H1666 | 0.856 | 0.965 | 0.986 | 1.1 | 0.833 | 0.636 | 0.631 | 0.665 | 0.584 | 0.71 | 0.732 | 0.597 | 0.844 | 0.817 | 0.879 | 0.764 | 0.815 | 0.486 |
| NCI-H1734 | – | 0.253 | 0.184 | 0.185 | 0.188 | 1.09 | 1.03 | 1.14 | 1.01 | 0.466 | 0.347 | 0.432 | 0.639 | 0.694 | 0.667 | 0.673 | 0.709 | 1.05 |
| NCI-H1755 | 0.458 | 0.406 | 0.262 | 0.576 | 0.61 | 1.08 | 1 | 1.17 | 0.78 | 0.715 | 0.756 | 0.667 | 0.749 | 0.731 | 0.794 | 0.749 | 0.751 | 0.874 |
| NCI-H1792 | – | 0.462 | 0.453 | 0.255 | 0.6 | 0.881 | 0.936 | 1.52 | 0.661 | 0.359 | 0.558 | 0.309 | 0.407 | 0.413 | 0.463 | 0.502 | 0.354 | – |
| NCI-H1793 | 0.16 | 0.141 | 0.182 | 0.158 | 0.22 | 0.647 | 0.668 | 0.828 | 0.792 | 0.459 | 0.468 | 0.361 | 0.479 | 0.362 | 0.47 | 0.418 | 0.408 | 0.748 |
